Reference: patent US12077503B2, “Substituted cyclic amides and their use as herbicides” (FMC CORPORATION, priority 2015, dated 2024)

Columns and labels:
Assay type in all cases: in vivo
[1] = tested on: blackgrass (Alopecurus myosuroides); test: Test A postemergence; conditions: Alopecurus myosuroides, post-emergence, 240 h, Postemergence, read-out: Blackgrass plant response rating (0 to 100 scale)
Outline: (§1)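 Compounds were formulated in a non-phytotoxic solvent mixture with surfactant and applied as a preemergence directed soil spray after seeding, or sprayed postemergence over plants 2 to 10 cm tall at the one- to two-leaf stage. Evaluation after about 10 d compared treated with untreated controls, using a scale from 0 (no effect) to 100 (complete control).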

[2] = tested on: giant foxtail (Setaria faberii); test: Test A postemergence; conditions: Setaria faberi, post-emergence, 240 h, Postemergence, read-out: Foxtail, Giant plant response rating (0 to 100 scale)
Outline: as §1

corn (Zea mays) = test: Test A postemergence; conditions: Zea mays, post-emergence, 240 h, Postemergence, read-out: Corn plant response rating (0 to 100 scale)
Outline: as §1

[3] = tested on: wheat (Triticum aestivum); test: Test A postemergence; conditions: Triticum aestivum, post-emergence, 240 h, Postemergence, read-out: Wheat plant response rating (0 to 100 scale)
Outline: as §1

[4] = tested on: ragweed (common ragweed, Ambrosia elatior); test: Test A postemergence; conditions: Ambrosia artemisiifolia, post-emergence, 240 h, Postemergence, read-out: Ragweed plant response rating (0 to 100 scale)
Outline: as §1

[5] = tested on: ryegrass, Italian (Italian ryegrass, Lolium multiflorum); test: Test A postemergence; conditions: Lolium multiflorum, post-emergence, 240 h, Postemergence, read-out: Ryegrass, Italian plant response rating (0 to 100 scale)
Outline: as §1

[6] = tested on: Galium (catchweed bedstraw, Galium aparine); test: Test A postemergence; conditions: Galium, post-emergence, 240 h, Postemergence, read-out: Galium plant response rating (0 to 100 scale)
Outline: as §1

[7] = tested on: barnyardgrass (Echinochloa crus-galli); test: Test A postemergence; conditions: Echinochloa crus-galli, post-emergence, 240 h, Postemergence
Outline: as §1

[8] = tested on: pigweed (Amaranthus retroflexus); test: Test A postemergence; conditions: Amaranthus retroflexus, post-emergence, 240 h, Postemergence, read-out: Pigweed plant response rating (0 to 100 scale)
Outline: as §1

Kochia (Kochia scoparia) [9] = test: Test A postemergence; conditions: Bassia scoparia, post-emergence, 240 h, Postemergence, read-out: Kochia plant response rating (0 to 100 scale)
Outline: as §1

[10] = tested on: ducksalad (Heteranthera limosa); test: Test B flooded paddy test; conditions: Heteranthera limosa, 360 h, Flood, 250 g ai/ha; visually evaluated after 13 to 15 d; read-out: Plant response rating, Ducksalad (0 to 100 scale where 0 is no effect and 100 is complete control)
Outline: (§2)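 Plants at 2-leaf stage flooded to 3 cm above soil, with compounds applied directly to paddy water and that depth maintained. Plants kept in greenhouse 13–15 d. Visual rating versus controls on a 0 (no effect) to 100 (complete control) scale.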

[11] = tested on: sedge, umbrella (small-flower umbrella sedge, Cyperus difformis); test: Test B flooded paddy test; conditions: Cyperus difformis, 360 h, Flood, 250 g ai/ha; visually evaluated after 13 to 15 d; read-out: Plant response rating, Sedge, Umbrella (0 to 100 scale where 0 is no effect and 100 is complete control)
Outline: as §2

rice (Oryra sativa) = test: Test B flooded paddy test; conditions: Oryza sativa, 360 h, Flood, 250 g ai/ha; visually evaluated after 13 to 15 d; read-out: Plant response rating, Rice (0 to 100 scale where 0 is no effect and 100 is complete control)
Outline: as §2

[12] = tested on: barnyardgrass (Echinochloa crus-galli); test: Test B flooded paddy test; conditions: Echinochloa crus-galli, 360 h, Flood, 250 g ai/ha; visually evaluated after 13 to 15 d; read-out: Plant response rating, Barnyardgrass (0 to 100 scale where 0 is no effect and 100 is complete control)
Outline: as §2

[13] = tested on: giant foxtail (Setaria faberii); test: Test A preemergence; conditions: Setaria faberi, pre-emergence, 240 h, Preemergence
Outline: as §1

[14] = tested on: ragweed (common ragweed, Ambrosia elatior); test: Test A preemergence; conditions: Ambrosia artemisiifolia, pre-emergence, 240 h, Preemergence
Outline: as §1

[15] = tested on: ryegrass, Italian (Italian ryegrass, Lolium multiflorum); test: Test A preemergence; conditions: Lolium multiflorum, pre-emergence, 240 h, Preemergence
Outline: as §1

[16] = tested on: barnyardgrass (Echinochloa crus-galli); test: Test A preemergence; conditions: Echinochloa crus-galli, pre-emergence, 240 h, Preemergence
Outline: as §1

[17] = tested on: pigweed (Amaranthus retroflexus); test: Test A preemergence; conditions: Amaranthus retroflexus, pre-emergence, 240 h, Preemergence
Kochia (Kochia scoparia) [18] = test: Test A preemergence; conditions: Bassia scoparia, pre-emergence, 240 h, Preemergence
Outline: as §1

[19] = 125 g ai/ha, visual rating about 10 d after treatment
[20] = 31 g ai/ha, 0 is no effect, 100 is complete control

Structure (SMILES): Cc1cccc([C@H]2CN(C)C(=O)[C@@H]2C(=O)Nc2cccnc2F)c1 [Compound 1345]
- pest or weed control at 125 g/ha [1, 19]: 20%
- pest or weed control at 31 g/ha [1, 20]: 0%
- pest or weed control at 125 g/ha [2, 19]: 90%
- pest or weed control at 31 g/ha [2, 20]: 20%
- plant injury at 125 g/ha (corn (Zea mays); [19]): 0%
- plant injury at 31 g/ha (corn (Zea mays); [20]): 0%
- plant injury at 125 g/ha [3, 19]: 0%
- plant injury at 31 g/ha [3, 20]: 0%
- pest or weed control at 125 g/ha [4, 19]: 0%
- pest or weed control at 31 g/ha [4, 20]: 0%
- pest or weed control at 125 g/ha [5, 19]: 0%
- pest or weed control at 31 g/ha [5, 20]: 0%
- pest or weed control at 125 g/ha [6, 19]: 20%
- pest or weed control at 31 g/ha [6, 20]: 0%
- pest or weed control at 125 g/ha ([7]; 125 g ai/ha, visual rating about 10 d after treatment, read-out: Barnyardgrass plant response rating (0 to 100 scale, 0 no effect, 100 complete control)): 90%
- pest or weed control at 31 g/ha ([7]; 31 g ai/ha, 0 is no effect, 100 is complete control, read-out: Barnyardgrass plant response rating (0 to 100 scale)): 50%
- pest or weed control at 125 g/ha [8, 19]: 0%
- pest or weed control at 31 g/ha [8, 20]: 0%
- pest or weed control at 125 g/ha (Kochia (Kochia scoparia) [9]; [19]): 0%
- pest or weed control at 31 g/ha (Kochia (Kochia scoparia) [9]; [20]): 0%
- pest or weed control at 250 g/ha [10]: 95%
- pest or weed control at 250 g/ha [11]: 0%
- pest or weed control at 250 g/ha (rice (Oryra sativa)): 0%
- pest or weed control at 250 g/ha [12]: 90%
- pest or weed control at 31 g/ha ([13]; 31 g ai/ha, 0 to 100 scale where 0 is no effect and 100 is complete control, read-out: Foxtail, Giant plant response rating): 90%
- pest or weed control at 125 g/ha ([13]; 125 g ai/ha, 0 to 100 scale (0 no effect, 100 complete control), read-out: Plant response rating, Foxtail, Giant): 100%
- pest or weed control at 31 g/ha ([14]; 31 g ai/ha, 0 to 100 scale where 0 is no effect and 100 is complete control, read-out: Ragweed plant response rating): 0%
- pest or weed control at 125 g/ha ([14]; 125 g ai/ha, 0 to 100 scale (0 no effect, 100 complete control), read-out: Plant response rating, Ragweed): 60%
- pest or weed control at 31 g/ha ([15]; 31 g ai/ha, 0 to 100 scale where 0 is no effect and 100 is complete control, read-out: Ryegrass, Italian plant response rating): 0%
- pest or weed control at 125 g/ha ([15]; 125 g ai/ha, 0 to 100 scale (0 no effect, 100 complete control), read-out: Plant response rating, Ryegrass, Italian): 0%
- pest or weed control at 31 g/ha ([16]; 31 g ai/ha, 0 to 100 scale where 0 is no effect and 100 is complete control, read-out: Barnyardgrass plant response rating): 80%
- pest or weed control at 125 g/ha ([16]; 125 g ai/ha, 0 to 100 scale (0 no effect, 100 complete control), read-out: Plant response rating, Barnyardgrass): 100%
- pest or weed control at 31 g/ha ([17]; 31 g ai/ha, 0 to 100 scale where 0 is no effect and 100 is complete control, read-out: Pigweed plant response rating): 0%
- pest or weed control at 125 g/ha ([17]; 125 g ai/ha, 0 to 100 scale (0 no effect, 100 complete control), read-out: Plant response rating, Pigweed): 0%
- pest or weed control at 31 g/ha (Kochia (Kochia scoparia) [18]; 31 g ai/ha, 0 to 100 scale where 0 is no effect and 100 is complete control, read-out: Kochia plant response rating): 0%
- pest or weed control at 125 g/ha (Kochia (Kochia scoparia) [18]; 125 g ai/ha, 0 to 100 scale (0 no effect, 100 complete control), read-out: Plant response rating, Kochia): 40%
